We go through 46 compounds from ChEMBL document CHEMBL2303647, “Data associated with the publication PLoS ONE, 8(3), e57888, (2013) PMID: 23505445. Compounds: GSK PKIS; Assays: NIH NCATS”.

A word on the AC50: it is the midpoint of the concentration-response curve, whichever way the signal moves.

In experiment [1] the target is Luciferin 4-monooxygenase (Photinus pyralis, UniProt P08659).
Description: GSK_PKIS: Inhibition of Firefly Luciferase (Data from PubChem: AID 652016) [NIH NCATS]
In experiment [2] the target is T1, Coelenterazine h 2-monooxygenase (Renilla reniformis, UniProt P27652).
T1 sequence (P27652 whole entry): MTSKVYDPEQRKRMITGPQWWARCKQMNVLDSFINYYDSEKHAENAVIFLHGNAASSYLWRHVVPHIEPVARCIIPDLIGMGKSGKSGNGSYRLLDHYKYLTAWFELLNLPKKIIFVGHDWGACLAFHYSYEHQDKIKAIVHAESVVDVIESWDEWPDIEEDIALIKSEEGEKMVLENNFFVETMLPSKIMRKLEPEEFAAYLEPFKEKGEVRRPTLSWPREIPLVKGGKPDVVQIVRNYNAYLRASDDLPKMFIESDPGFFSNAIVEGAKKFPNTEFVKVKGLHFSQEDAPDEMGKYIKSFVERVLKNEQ
Description: GSK_PKIS: Inhibition of Sea Pansy Luciferase (Data from PubChem: AID 652015) [NIH NCATS]

Molecules are shown by their SMILES.

Sequence of Luciferin 4-monooxygenase (P08659 whole entry): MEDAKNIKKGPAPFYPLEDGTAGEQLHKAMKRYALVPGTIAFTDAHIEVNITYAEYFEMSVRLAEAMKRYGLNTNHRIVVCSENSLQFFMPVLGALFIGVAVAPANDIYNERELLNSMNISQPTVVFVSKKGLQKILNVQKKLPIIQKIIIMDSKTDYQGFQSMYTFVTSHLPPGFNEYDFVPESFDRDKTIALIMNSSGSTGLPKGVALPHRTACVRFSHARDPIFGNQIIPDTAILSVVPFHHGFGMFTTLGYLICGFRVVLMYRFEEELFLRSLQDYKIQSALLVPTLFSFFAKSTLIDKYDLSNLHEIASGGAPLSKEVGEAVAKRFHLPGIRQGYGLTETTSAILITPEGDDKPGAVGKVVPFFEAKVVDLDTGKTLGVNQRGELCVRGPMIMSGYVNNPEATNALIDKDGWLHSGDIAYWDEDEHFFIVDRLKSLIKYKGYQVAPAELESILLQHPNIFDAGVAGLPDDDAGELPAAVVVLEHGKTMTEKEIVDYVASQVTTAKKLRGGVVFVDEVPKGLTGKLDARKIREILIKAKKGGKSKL

`CNC(=O)Oc1cc(C)c(/C=C/c2cncc(C(=O)NC)c2)c(C)c1` [GW432441X]: the AC50 is 29.1 µM in experiment [1] (read-out: AC50) and “Phenotype: Inactive; Curve_Description: None” in experiment [2].
As to `Fc1ccc(-c2nn3ccccc3c2-c2ccncc2)cc1` [GW434756X], the AC50 in experiment [1] (read-out: AC50) was found to be 1.16 µM; in experiment [2] (read-out: AC50), 23.1 µM.
`Cc1cc(O)cc(C)c1/C=C/c1cncc(C(N)=O)c1` [GW435821X]: the AC50 entry in experiment [1] and in experiment [2] was “Phenotype: Inactive; Curve_Description: None” in each case.
Turning to `Cc1cc(O)cc(C)c1/C=C/c1cncc(C(=O)OC(C)(C)C)c1` [GW439255X], the AC50 result in experiment [1] and in experiment [2] was “Phenotype: Inactive; Curve_Description: None” throughout.
On to `Cc1ccc(O)cc1Nc1ccnc2cc(-c3ccccn3)ccc12` [GW440139A], for which the AC50 came to 20.6 µM in experiment [1] (read-out: AC50) and 23.1 µM in experiment [2] (read-out: AC50).
Taken in the same sequence, the figures for `Cn1cc(C=C2C(=O)Nc3cccnc32)c2ccccc21` [GW441756X] were 14.6 µM and 20.6 µM.
Consider `Cc1cc(O)cc(C)c1/C=C/c1cncc(-c2nn[nH]n2)c1.Cl` [GW441806A], for which the results for the AC50 in experiment [1] (read-out: AC50) and in experiment [2] were 29.1 µM and “Phenotype: Inactive; Curve_Description: None”, respectively.
Turning to `COc1ccccc1-c1cc(/C=C2\C(=O)Nc3ncc(Br)cc32)cc(Br)c1O` [GW442130X], the AC50 in experiment [1] (read-out: AC50) was determined as 41.1 µM; in experiment [2] (read-out: AC50), 8.19 µM.
In the case of `CNC(=O)c1cncc(/C=C/c2c(C)cccc2C)c1` [GW445012X], the AC50 in experiment [1] (read-out: AC50) was 20.6 µM; in experiment [2], “Phenotype: Inactive; Curve_Description: None”.
As for `CNC(=O)c1cncc(/C=C/c2c(Cl)cccc2Cl)c1` [GW445014X], the results for the AC50 in experiment [1] (read-out: AC50) and in experiment [2] (read-out: AC50) were 16.3 µM and 23.1 µM, respectively.
`CNC(=O)c1cncc(/C=C/c2ccccc2C)c1` [GW445015X]: the AC50 result in experiment [1] and in experiment [2] was “Phenotype: Inactive; Curve_Description: None” in each case.
As to `CNC(=O)c1cncc(/C=C/c2ccccc2Cl)c1` [GW445017X], the results for the AC50 in experiment [1] (read-out: AC50) and in experiment [2] were 9.19 µM and “Phenotype: Inactive; Curve_Description: None”, respectively.
Taken in the same sequence, the figures for `CCc1cccc(CC)c1/C=C/c1cncc(C(=O)NC)c1` [GW450241X] were 36.6 µM and “Phenotype: Inactive; Curve_Description: None”.
Taken in the same sequence, the figures for `Cc1cc(-c2ccco2)cc(C)c1/C=C/c1cncc(-c2nn[nH]n2)c1.Cl` [GW458344A] were 20.6 µM and “Phenotype: Inactive; Curve_Description: None”.
Taken in the same sequence, the figures for `CS(=O)(=O)CCNCc1ccc(-c2ccc3ncnc(Nc4ccc(OCc5ccccc5)cc4)c3c2)o1.Cl` [GW458787A] were 18.3 µM and “Phenotype: Inactive; Curve_Description: None”.
For `Cc1cc(-c2ccccn2)cc(C)c1/C=C/c1cncc(-c2nn[nH]n2)c1.Cl` [GW459057A], the AC50 entry was “Phenotype: Inactive; Curve_Description: None” in experiment [1] and 32.6 µM in experiment [2] (read-out: AC50).
For the compound `CS(=O)(=O)CCNCc1nc(-c2ccc3ncnc(Nc4ccc(F)c(Cl)c4)c3c2)cs1.Cl` [GW461104A], the AC50 entry in experiment [1] and in experiment [2] was “Phenotype: Inactive; Curve_Description: None” each time.
As for `COc1cc(C=NNc2ncnc3c2cnn3-c2ccccc2)ccc1O` [GW513184X], the AC50 result in experiment [1] and in experiment [2] was “Phenotype: Inactive; Curve_Description: None” throughout.
Turning to `CCn1c(-c2nonc2N)nc2ccccc21` [GW549034X], the AC50 entry in experiment [1] and in experiment [2] was “Phenotype: Inactive; Curve_Description: None” each time.
On to `c1ccc(Nc2ncc(-c3ccccc3)o2)cc1` [GW549390X], for which the AC50 is 0.259 µM in experiment [1] (read-out: AC50) and “Phenotype: Inactive; Curve_Description: None” in experiment [2].
Taken in the same sequence, the figures for `Cc1ccc(O)cc1Nc1ccnc2ccc(S(C)(=O)=O)cc12` [GW559768X] were 41.1 µM and “Phenotype: Inactive; Curve_Description: None”.
For the compound `N#Cc1ccc2c(-c3ccnc(NC4CC4)n3)c(-c3ccc(F)cc3)nn2c1` [GW561436X], the values for the AC50 in experiment [1] (read-out: AC50) and in experiment [2] were 46.1 µM and “Phenotype: Inactive; Curve_Description: None”, respectively.
Taken in the same sequence, the figures for `CS(=O)(=O)CCNCc1coc(-c2ccc3ncnc(Nc4ccc(OCc5ccccc5)cc4)c3c2)c1.Cl` [GW566221A] were 13 µM and “Phenotype: Inactive; Curve_Description: None”.
With `CS(=O)(=O)CCNCc1ccc(-c2ccc3ncnc(Nc4ccc(OCc5cccc(C(F)(F)F)c5)cc4)c3c2)o1.Cl` [GW567808A], the AC50 result in experiment [1] is on record as “Phenotype: Inactive; Curve_Description: None”; in experiment [2], “Phenotype: Activator; Curve_Description: None”.
In the same order, the values of `Nc1nccc(-c2c(-c3ccc(F)cc3)nn3cc(C(F)(F)F)ccc23)n1` [GW568326X] are “Phenotype: Inactive; Curve_Description: None” and “Phenotype: Inactive; Curve_Description: None”.
As to `CS(=O)(=O)CCNCc1ccoc1-c1ccc2ncnc(Nc3ccc(OCc4ccccc4)cc3)c2c1.Cl` [GW568377A], the AC50 in experiment [1] (read-out: AC50) was 20.6 µM; in experiment [2] it was “Phenotype: Inactive; Curve_Description: None”.
Taken in the same sequence, the figures for `O=C(O)/C=C/C(=O)O.OCCCNc1nccc(-c2c(-c3ccc(F)cc3)nn3cc(C(F)(F)F)ccc23)n1` [GW569293E] were 32.6 µM and “Phenotype: Inactive; Curve_Description: None”.
As for `CS(=O)(=O)CCNCc1nc(-c2ccc3ncnc(Nc4ccc(OCc5cccc(C(F)(F)F)c5)cc4)c3c2)cs1.Cl` [GW569530A], the AC50 result in experiment [1] and in experiment [2] was “Phenotype: Inactive; Curve_Description: None” throughout.
As to `NS(=O)(=O)c1ccc(Nc2ncc(-c3ccccc3)o2)cc1` [GW572399X], the concentration at half-maximal activity (AC50) result in experiment [1] and in experiment [2] was “Phenotype: Inactive; Curve_Description: None” each time.
For the compound `CCN(CC)S(=O)(=O)c1ccc(OC)c(Nc2ncc(-c3ccccc3)o2)c1` [GW572401X], the AC50 result in experiment [1] and in experiment [2] was “Phenotype: Inactive; Curve_Description: None” in each case.
For the compound `N#Cc1c(NC(=O)c2ccccc2F)sc2c1CCCC2` [GW572738X], the AC50 in experiment [1] (read-out: AC50) was 0.819 µM; in experiment [2], “Phenotype: Inactive; Curve_Description: None”.
`CS(=O)(=O)CCNCc1ccc(-c2ccc3ncnc(Nc4ccc(OCc5ccccc5)c(C(F)(F)F)c4)c3c2)o1.Cl` [GW574782A]: the AC50 entry in experiment [1] and in experiment [2] was “Phenotype: Inactive; Curve_Description: None” throughout.
In the case of `CS(=O)(=O)CCNCc1ccc(-c2ccc3ncnc(Nc4ccc(OCc5ccccc5)c(Cl)c4)c3c2)o1.Cl` [GW574783B], the figures for the AC50 in experiment [1] (read-out: AC50) and in experiment [2] were 20.6 µM and “Phenotype: Inactive; Curve_Description: None”, respectively.
In the same order, the values of `COc1ccc(Nc2ncc(-c3ccccc3)o2)cc1OC.Cl` [GW575533A] are 5.8 µM and “Phenotype: Inactive; Curve_Description: None”.
Taken in the same sequence, the figures for `Cc1ccc(Nc2ccnc(Nc3cccc(C(N)=O)c3)n2)cc1O.Cl` [GW575808A] were 1.46 µM and “Phenotype: Inactive; Curve_Description: None”.
Turning to `CS(=O)(=O)CCNCc1ccc(-c2ccc3ncnc(Nc4ccc(OCc5cccc(F)c5)c(C(F)(F)F)c4)c3c2)o1` [GW576484X], the half-maximal activity concentration (AC50) result in experiment [1] and in experiment [2] was “Phenotype: Inactive; Curve_Description: None” each time.
For the compound `O=C(O)C(F)(F)F.[O-][S+]1CCN(Cc2ccc(-c3ccc4ncnc(Nc5ccc(OCc6cccc(F)c6)c(Cl)c5)c4c3)o2)CC1` [GW576609A], the figures for the AC50 in experiment [1] (read-out: AC50) and in experiment [2] were 18.3 µM and “Phenotype: Inactive; Curve_Description: None”, respectively.
Taken in the same sequence, the figures for `Cl.[O-][S+]1CCN(Cc2ccc(-c3ccc4ncnc(Nc5ccc(OCc6ccccc6)c(F)c5)c4c3)o2)CC1` [GW576924A] were 16.3 µM and “Phenotype: Inactive; Curve_Description: None”.
For the compound `COc1ccccc1Nc1ncc(-c2ccccc2)o1.Cl` [GW577921A], the AC50 is 1.03 µM in experiment [1] (read-out: AC50) and “Phenotype: Inactive; Curve_Description: None” in experiment [2].
Taken in the same sequence, the figures for `COc1cc(/C=N/Nc2ncnc3[nH]ncc23)ccc1O` [GW578748X] were 3.66 µM and “Phenotype: Inactive; Curve_Description: None”.
In the same order, the values of `CS(=O)(=O)CCNCc1ccc(-c2ccc3ncnc(Nc4ccc(OCc5ccccc5)c(Br)c4)c3c2)o1.Cl` [GW580496A] are 20.6 µM and “Phenotype: Inactive; Curve_Description: None”.
As to `CCS(=O)(=O)c1ccc(OC)c(Nc2ncc(-c3cccc(OC)c3)o2)c1` [GW580509X], the half-maximal activity concentration (AC50) entry was “Phenotype: Inactive; Curve_Description: None” in experiment [1] and 18.3 µM in experiment [2] (read-out: AC50).
`NC(=O)c1ccc2c(-c3ccnc(NCCCO)n3)c(-c3ccc(F)cc3)nn2c1` [GW581744X]: the AC50 entry in experiment [1] and in experiment [2] was “Phenotype: Inactive; Curve_Description: None” in each case.
On to `[O-][S+]1CCN(Cc2ccc(-c3ccc4ncnc(Nc5ccc(OCc6ccccc6)c(Cl)c5)c4c3)o2)CC1` [GW583373A], for which the AC50 in experiment [1] (read-out: AC50) is 14.6 µM; in experiment [2] (read-out: AC50), 0.0005 µM.
Consider `NS(=O)(=O)c1ccc(NC=C2C(=O)Nc3ccc4ncsc4c32)cc1` [GW589933X], for which the values for the AC50 entry in experiment [1] and in experiment [2] (read-out: AC50) were “Phenotype: Inactive; Curve_Description: None” and 16.3 µM, respectively.
With `COC(=O)Nc1nc2ccc(Oc3ccc(NC(=O)Nc4cccc(Cl)c4)cc3)cc2[nH]1.Cl` [GW589961A], the AC50 in experiment [1] (read-out: AC50) is 20.6 µM; in experiment [2], “Phenotype: Inactive; Curve_Description: None”.
